Laboratory results from the kinase profiling compilation of Christmann-Franck et al. (2016).
Several values for one entry are separate records, joined by “and”; a condition that tells them apart may be missing. Equal values may be shown once.

How the values were obtained:
[1] = target: MKNK2 (human) (UniProt Q9HBH9)
[2] = target: DYRK3 (human) (UniProt O43781)
[3] = target: PAK7 (human) (UniProt Q9P286)
[4] = target: MKNK1 (human) (UniProt Q9BUB5)
[5] = target: PDPK1 (human) (UniProt O15530)
[6] = target: RPS6KA3 KD1 KD2 (human) (UniProt P51812)
[7] = target: MAPK9 (human) (UniProt P45984)
[8] = target: FGFR1 (human) (UniProt P11362)
[9] = target: PAK6 (human) (UniProt Q9NQU5)
[10] = target: MARK3 (human) (UniProt P27448)
[11] = tested on: PRKAA1 or PRKAA2 (rat); conditions: accession and sequence are those of the human protein
[12] = target: PRKCZ (human) (UniProt Q05513)
[13] = target: NEK2 (human) (UniProt P51955)
[14] = tested on: SGK1 (human), O00141 [S422D]
[15] = target: BRSK2 (human) (UniProt Q8IWQ3)
[16] = target: DYRK2 (human) (UniProt Q92630)
[17] = target: PHKG1 (human) (UniProt Q16816)
[18] = target: DYRK1A (human) (UniProt Q13627)
[19] = target: INSRR (human) (UniProt P14616)
[20] = target: PIM1 (human) (UniProt P11309)
[21] = target: PKN2 (human) (UniProt Q16513)
[22] = target: CHEK2 (human) (UniProt O96017)
[23] = target: CSNK1D (human) (UniProt P48730)
[24] = target: CSK (human) (UniProt P41240)
[25] = target: STK3 (human) (UniProt Q13188)
[26] = target: RPS6KA5 KD1 KD2 (human) (UniProt O75582)
[27] = target: MELK (human) (UniProt Q14680)
[28] = target: CaMK1 (human) (UniProt Q14012)
[29] = target: HIPK2 (human) (UniProt Q9H2X6)
[30] = target: PI4KB (human) (UniProt Q9UBF8)
[31] = target: PIK3C2B (human) (UniProt O00750)
[32] = target: PIK3C3 (human) (UniProt Q8NEB9)
[33] = target: PI4KA (human) (UniProt P42356)
[34] = target: PIK3C2A (human) (UniProt O00443)

Chain of PDPK1 (human) (O15530 whole entry, looked up): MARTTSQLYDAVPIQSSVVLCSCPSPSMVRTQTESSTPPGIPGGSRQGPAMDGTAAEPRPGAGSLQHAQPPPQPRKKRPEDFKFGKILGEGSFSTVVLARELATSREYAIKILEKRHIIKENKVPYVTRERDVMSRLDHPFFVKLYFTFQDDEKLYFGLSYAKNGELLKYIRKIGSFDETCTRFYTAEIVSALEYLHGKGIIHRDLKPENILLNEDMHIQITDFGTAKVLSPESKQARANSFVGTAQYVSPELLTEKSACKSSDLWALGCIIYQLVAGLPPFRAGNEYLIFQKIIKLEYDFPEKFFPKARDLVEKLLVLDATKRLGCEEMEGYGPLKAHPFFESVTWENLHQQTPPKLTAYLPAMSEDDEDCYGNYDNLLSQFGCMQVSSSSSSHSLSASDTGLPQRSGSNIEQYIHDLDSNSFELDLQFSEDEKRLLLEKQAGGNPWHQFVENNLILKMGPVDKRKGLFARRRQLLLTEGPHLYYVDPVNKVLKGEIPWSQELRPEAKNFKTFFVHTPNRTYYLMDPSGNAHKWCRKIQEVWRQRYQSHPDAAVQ
Chain of MKNK1 (human) (Q9BUB5 whole entry, looked up): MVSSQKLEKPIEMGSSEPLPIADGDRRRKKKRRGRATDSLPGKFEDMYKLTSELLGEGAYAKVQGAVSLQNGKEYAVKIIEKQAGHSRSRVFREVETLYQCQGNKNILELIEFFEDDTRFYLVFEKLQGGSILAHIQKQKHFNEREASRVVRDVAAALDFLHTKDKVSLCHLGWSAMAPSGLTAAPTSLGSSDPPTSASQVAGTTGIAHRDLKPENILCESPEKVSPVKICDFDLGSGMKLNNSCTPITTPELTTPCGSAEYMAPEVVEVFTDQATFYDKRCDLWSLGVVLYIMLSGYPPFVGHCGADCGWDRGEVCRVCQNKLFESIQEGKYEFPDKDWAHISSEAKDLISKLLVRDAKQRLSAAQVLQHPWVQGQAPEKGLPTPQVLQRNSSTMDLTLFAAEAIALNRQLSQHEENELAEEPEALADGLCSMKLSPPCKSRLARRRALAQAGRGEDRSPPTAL
Chain of RPS6KA3 KD1 KD2 (human) (P51812 whole entry, looked up): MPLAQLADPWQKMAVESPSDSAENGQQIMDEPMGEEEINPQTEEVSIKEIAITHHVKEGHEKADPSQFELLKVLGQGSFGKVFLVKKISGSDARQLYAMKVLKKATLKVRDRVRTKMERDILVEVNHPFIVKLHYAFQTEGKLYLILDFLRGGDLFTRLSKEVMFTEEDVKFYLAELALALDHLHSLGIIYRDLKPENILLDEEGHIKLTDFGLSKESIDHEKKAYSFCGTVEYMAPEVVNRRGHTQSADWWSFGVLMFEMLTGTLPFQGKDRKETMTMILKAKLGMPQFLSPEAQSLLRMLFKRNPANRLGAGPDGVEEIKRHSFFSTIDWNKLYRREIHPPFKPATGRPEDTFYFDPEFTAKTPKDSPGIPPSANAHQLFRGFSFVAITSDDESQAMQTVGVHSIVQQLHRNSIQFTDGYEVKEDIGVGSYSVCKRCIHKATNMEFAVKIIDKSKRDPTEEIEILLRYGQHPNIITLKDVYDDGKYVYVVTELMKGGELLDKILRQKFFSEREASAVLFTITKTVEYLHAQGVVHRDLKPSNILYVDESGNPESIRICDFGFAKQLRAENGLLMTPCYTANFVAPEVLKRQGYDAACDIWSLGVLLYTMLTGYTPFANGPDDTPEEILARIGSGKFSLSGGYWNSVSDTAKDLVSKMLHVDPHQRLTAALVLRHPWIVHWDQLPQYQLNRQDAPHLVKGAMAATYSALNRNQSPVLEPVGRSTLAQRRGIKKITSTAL
Chain of INSRR (human) (P14616 whole entry, looked up): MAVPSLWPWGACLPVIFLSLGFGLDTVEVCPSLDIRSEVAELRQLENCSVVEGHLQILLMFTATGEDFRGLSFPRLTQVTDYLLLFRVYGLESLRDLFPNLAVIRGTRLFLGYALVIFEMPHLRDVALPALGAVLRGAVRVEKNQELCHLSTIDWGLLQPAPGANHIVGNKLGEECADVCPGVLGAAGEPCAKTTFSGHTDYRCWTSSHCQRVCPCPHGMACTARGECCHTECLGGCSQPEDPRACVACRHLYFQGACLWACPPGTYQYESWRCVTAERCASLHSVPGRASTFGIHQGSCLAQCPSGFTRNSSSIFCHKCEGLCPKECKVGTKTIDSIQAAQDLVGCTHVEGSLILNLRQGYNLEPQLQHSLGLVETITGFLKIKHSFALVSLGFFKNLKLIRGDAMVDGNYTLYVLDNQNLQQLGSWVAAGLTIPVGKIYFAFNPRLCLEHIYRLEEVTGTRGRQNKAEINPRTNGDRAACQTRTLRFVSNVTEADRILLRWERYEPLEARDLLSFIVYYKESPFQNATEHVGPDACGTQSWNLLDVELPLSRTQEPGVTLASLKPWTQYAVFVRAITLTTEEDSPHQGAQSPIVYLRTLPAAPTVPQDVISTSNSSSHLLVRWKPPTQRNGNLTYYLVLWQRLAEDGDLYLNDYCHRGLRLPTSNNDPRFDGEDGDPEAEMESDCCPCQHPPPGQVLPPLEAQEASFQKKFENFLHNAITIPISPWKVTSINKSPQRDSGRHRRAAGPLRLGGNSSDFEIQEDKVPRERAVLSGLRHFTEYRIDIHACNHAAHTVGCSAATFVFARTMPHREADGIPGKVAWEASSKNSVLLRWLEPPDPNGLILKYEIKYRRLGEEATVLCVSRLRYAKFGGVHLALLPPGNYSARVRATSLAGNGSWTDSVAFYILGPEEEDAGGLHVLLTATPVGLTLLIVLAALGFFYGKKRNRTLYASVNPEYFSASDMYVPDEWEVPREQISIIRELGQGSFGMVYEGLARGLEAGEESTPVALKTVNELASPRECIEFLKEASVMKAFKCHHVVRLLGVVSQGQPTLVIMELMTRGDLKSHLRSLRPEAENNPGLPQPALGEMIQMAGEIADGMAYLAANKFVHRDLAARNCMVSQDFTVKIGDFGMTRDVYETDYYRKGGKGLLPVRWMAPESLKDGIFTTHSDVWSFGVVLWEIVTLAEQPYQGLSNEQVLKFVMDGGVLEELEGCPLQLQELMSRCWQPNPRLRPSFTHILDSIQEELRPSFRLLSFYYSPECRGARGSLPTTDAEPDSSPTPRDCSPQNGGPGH
Chain of BRSK2 (human) (Q8IWQ3 whole entry, looked up): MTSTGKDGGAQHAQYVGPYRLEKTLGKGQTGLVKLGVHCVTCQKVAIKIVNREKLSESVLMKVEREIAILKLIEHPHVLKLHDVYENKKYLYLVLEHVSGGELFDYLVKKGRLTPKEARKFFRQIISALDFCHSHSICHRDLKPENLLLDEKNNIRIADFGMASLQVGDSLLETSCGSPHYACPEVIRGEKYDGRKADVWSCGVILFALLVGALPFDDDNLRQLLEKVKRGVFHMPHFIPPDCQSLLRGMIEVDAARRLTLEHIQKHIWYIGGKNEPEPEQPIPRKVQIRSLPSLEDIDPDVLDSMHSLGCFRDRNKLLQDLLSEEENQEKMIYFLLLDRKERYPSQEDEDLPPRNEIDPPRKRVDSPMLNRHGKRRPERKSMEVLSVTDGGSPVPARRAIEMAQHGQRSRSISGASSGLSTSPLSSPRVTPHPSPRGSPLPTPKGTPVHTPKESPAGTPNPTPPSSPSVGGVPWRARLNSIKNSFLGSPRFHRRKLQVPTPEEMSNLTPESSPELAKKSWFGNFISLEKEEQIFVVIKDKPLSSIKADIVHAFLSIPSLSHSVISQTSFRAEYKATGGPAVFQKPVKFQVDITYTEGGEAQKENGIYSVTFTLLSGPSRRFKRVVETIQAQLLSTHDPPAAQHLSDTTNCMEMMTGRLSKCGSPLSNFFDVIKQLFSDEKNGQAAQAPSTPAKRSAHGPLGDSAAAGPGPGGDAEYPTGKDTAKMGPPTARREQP
Chain of MKNK2 (human) (Q9HBH9 whole entry, looked up): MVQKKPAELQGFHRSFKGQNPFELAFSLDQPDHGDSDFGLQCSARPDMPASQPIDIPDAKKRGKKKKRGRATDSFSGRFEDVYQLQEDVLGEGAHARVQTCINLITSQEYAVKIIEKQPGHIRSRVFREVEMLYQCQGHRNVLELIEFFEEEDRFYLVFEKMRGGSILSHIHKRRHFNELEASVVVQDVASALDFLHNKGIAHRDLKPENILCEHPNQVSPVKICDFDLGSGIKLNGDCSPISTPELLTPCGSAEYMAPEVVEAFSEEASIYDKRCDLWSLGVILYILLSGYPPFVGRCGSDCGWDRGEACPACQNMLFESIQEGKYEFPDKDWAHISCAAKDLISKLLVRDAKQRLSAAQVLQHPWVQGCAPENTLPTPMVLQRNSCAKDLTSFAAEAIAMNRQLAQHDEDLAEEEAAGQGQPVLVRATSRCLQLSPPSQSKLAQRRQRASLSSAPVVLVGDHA
Chain of NEK2 (human) (P51955 whole entry, looked up): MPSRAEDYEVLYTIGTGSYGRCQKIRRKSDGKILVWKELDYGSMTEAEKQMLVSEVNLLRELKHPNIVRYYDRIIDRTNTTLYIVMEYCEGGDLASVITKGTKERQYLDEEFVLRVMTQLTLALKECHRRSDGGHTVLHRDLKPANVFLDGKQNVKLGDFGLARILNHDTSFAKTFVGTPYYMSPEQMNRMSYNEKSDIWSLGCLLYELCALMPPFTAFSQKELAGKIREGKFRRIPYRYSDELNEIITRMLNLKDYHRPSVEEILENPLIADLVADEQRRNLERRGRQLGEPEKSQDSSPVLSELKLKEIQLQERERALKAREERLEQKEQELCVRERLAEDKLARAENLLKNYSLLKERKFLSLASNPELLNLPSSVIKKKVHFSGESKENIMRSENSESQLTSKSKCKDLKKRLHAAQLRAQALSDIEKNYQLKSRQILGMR
Chain of PIM1 (human) (P11309 whole entry, looked up): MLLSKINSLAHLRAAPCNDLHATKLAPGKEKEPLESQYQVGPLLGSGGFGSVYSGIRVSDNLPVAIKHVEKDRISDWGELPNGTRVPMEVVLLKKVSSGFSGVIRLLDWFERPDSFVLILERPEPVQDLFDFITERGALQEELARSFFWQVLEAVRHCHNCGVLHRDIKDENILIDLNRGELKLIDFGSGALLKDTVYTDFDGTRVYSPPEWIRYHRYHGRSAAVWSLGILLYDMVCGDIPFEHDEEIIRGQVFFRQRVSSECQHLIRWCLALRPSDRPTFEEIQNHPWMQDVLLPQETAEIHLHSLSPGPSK

## COC(=O)Nc1ccc(-c2nc(N3CCOCC3)c3cnn(C4CCN(C(=O)OC)CC4)c3n2)cc1
[1]; compound 1.0 µM
  per cent of control: 115%
[1]; compound 10.0 µM
  per cent of control: 93%
[2]; compound 1.0 µM
  per cent of control: 84%
[2]; compound 10.0 µM
  per cent of control: 77%
[3]; compound 1.0 µM
  per cent of control: 97%
[3]; compound 10.0 µM
  per cent of control: 87%
[4]; compound 1.0 µM
  per cent of control: 96%
[4]; compound 10.0 µM
  per cent of control: 92%
[5]; compound 1.0 µM
  per cent of control: 98% and 100%
[5]; compound 10.0 µM
  per cent of control: 80% and 101%
[6]; compound 1.0 µM
  per cent of control: 88%
[6]; compound 10.0 µM
  per cent of control: 87%
[7]; compound 1.0 µM
  per cent of control: 92%
[7]; compound 10.0 µM
  per cent of control: 89%
[8]; compound 1.0 µM
  per cent of control: 95%
[8]; compound 10.0 µM
  per cent of control: 109%
[9]; compound 1.0 µM
  per cent of control: 99%
[9]; compound 10.0 µM
  per cent of control: 90%
[10]; compound 1.0 µM
  per cent of control: 92%
[10]; compound 10.0 µM
  per cent of control: 107%
[11]; compound 1.0 µM
  per cent of control: 78%
[11]; compound 10.0 µM
  per cent of control: 82%
[12]; compound 1.0 µM
  per cent of control: 93%
[12]; compound 10.0 µM
  per cent of control: 106%
[13]; compound 1.0 µM
  per cent of control: 93%
[13]; compound 10.0 µM
  per cent of control: 101%
[14]; compound 1.0 µM
  per cent of control: 85%
[14]; compound 10.0 µM
  per cent of control: 77%
[15]; compound 1.0 µM
  per cent of control: 95%
[15]; compound 10.0 µM
  per cent of control: 88%
[16]; compound 1.0 µM
  per cent of control: 92%
[16]; compound 10.0 µM
  per cent of control: 96%
[17]; compound 1.0 µM
  per cent of control: 108%
[17]; compound 10.0 µM
  per cent of control: 93%
[18]; compound 1.0 µM
  per cent of control: 111%
[18]; compound 10.0 µM
  per cent of control: 90%
[19]; compound 1.0 µM
  per cent of control: 88%
[19]; compound 10.0 µM
  per cent of control: 99%
[20]; compound 1.0 µM
  per cent of control: 117%
[20]; compound 10.0 µM
  per cent of control: 103%
[21]; compound 1.0 µM
  per cent of control: 117%
[21]; compound 10.0 µM
  per cent of control: 101%
[22]; compound 1.0 µM
  per cent of control: 86%
[22]; compound 10.0 µM
  per cent of control: 88%
[23]; compound 1.0 µM
  per cent of control: 90%
[23]; compound 10.0 µM
  per cent of control: 92%
[24]; compound 1.0 µM
  per cent of control: 113%
[24]; compound 10.0 µM
  per cent of control: 106%
[25]; compound 1.0 µM
  per cent of control: 85%
[25]; compound 10.0 µM
  per cent of control: 96%
[26]; compound 1.0 µM
  per cent of control: 83%
[26]; compound 10.0 µM
  per cent of control: 86%
[27]; compound 1.0 µM
  per cent of control: 87%
[27]; compound 10.0 µM
  per cent of control: 75%
[28]; compound 1.0 µM
  per cent of control: 97%
[28]; compound 10.0 µM
  per cent of control: 102%
[29]; compound 1.0 µM
  per cent of control: 95%
[29]; compound 10.0 µM
  per cent of control: 94%
[30]
  IC50: > 10 µM
[31]
  IC50: 5.15 µM
[32]
  IC50: > 10 µM
[33]
  IC50: > 3.33 µM
[34]
  IC50: > 10 µM
